Source: patent publication EP4316482A1, “LEVODOPA FOR PREVENTING ADDICTION” (4P-Pharma, priority 2022, dated 2024)

What was measured:
Type in all cases: in vivo
C57B1/6J mice [1] = experiment: Observation of mice activity: methylphenidate-induced hyperactivity (Example 1); conditions: male mice, IP, methylphenidate 10 mg/kg, levodopa 17 mg/kg, 5 minutes session 15 minutes after treatment, Mean ± SEM, n=6; for horizontal activity: line crossings; for vertical activity: rearing or climbing
Experimental: • Species / Strain: Mice / C57B1/6J • Gender / Number / Age: Male / 24 / 8 weeks at study initiation • Source: Janvier Labs, France
The Test items and vehicle were administered via intraperitoneal injections according to Table 2. Table 2 - Study design
(§1) Mice were subj ected to a behavioral test to evaluate their activity 15 minutes after treatment administration (5 minutes session). Mice were acclimated to the surrounding for 15 minutes before the beginning of the test. At the appropriate time after treatment administration, mice (1 per cage) were placed in the middle of a polyethylene cage measuring 17 × 32 × 14 cm without stainless steel top grill (no access to food or drinking water), without bedding and with a line drawn at the bottom of the cage. Activity was then monitored during 5 minutes session at 15 minutes after treatment administration, measuring different parameters: • Horizontal activity: the number of times the mice crossed the line drawn at the bottom of the cage during the session was recorded to assess horizontal activity levels. • Vertical activity: the number of rearing or climbing was recorded to assess vertical activity levels.

C57B1/6J mice [2] = experiment: Observation of mice activity: methylphenidate-induced hyperactivity, levodopa/carbidopa (Example 2); conditions: male mice, IP, methylphenidate 20 mg/kg, levodopa (carbidopa) 17(1,7) mg/kg, 5 minutes session 15 minutes after treatment, Mean ± SEM, n=6
Experimental: • Species / Strain: Mice / C57B1/6J • Gender / Number / Age: Male / 24 / 9 weeks at study initiation • Source: Janvier Labs, France
The Test items and vehicle were administered via intraperitoneal injections according to Table 3. Table 3 - Study design
as §1

C57B1/6J mice [3] = experiment: Hyperactivity and behavioral sensitization induced by methylphenidate: distance travelled in drug sessions (Example 3); conditions: male mice, IP; methylphenidate 3 mg/kg, levodopa (carbidopa) 8,5(0,85) or 17(1,7) mg/kg; four 30 minutes drug sessions; n=9
Experimental: • Species / Strain: Mice / C57B1/6J • Gender / Number / Age: Male / 36 / 6-8 weeks at study initiation • Source: Janvier Labs, France
The Test items and vehicle were administered via intraperitoneal injections according to Table 4. Table 4 - Study design
Mice were subj ected to a behavioral test to evaluate their activity 30 minutes after treatment administration. Mice received an administration of vehicle and were placed in the apparatus (20 cm wide, 40 cm large, 40 cm high) for the habituation session (30 minutes). After, 4 drug sessions were performed on days 2, 4, 8 and 10 or on days 3, 5, 9 and 11. Mice were injected with one of the tested drugs (or vehicle) immediately before being placed in the box. Mice activity was then monitored during 30 minutes session after treatment administration, measuring: distance travelled in the compartment in the four sessions.

C57B1/6J mice [4] = experiment: Behavioral sensitization test for methylphenidate addiction/dependence (Example 4); conditions: methylphenidate 10 mg/kg, Mean ± SEM; for locomotor activity (total distance travelled) / horizontal activity: female and male mice, IP, levodopa/carbidopa 17/1.7 mg/kg; for locomotor activity (total distance travelled): 20 minutes session; for horizontal activity: line crossings
Experimental: • Species / Strain: Mice / C57B1/6J • Gender / Number / Age: Male / 30 / 9 weeks at study initiation and Female / 35 / 9 weeks at study initiation • Source: Janvier Labs, France
The Test items and vehicle were administered via intraperitoneal injections according to Table 5. Table 5 - Study design
Mice were subjected to a behavioral test to evaluate their activity after treatment or vehicle administration. Mice (1 per cage) were placed in the center of a polyethylene cage without stainless steel top grill (no access to food or drinking water), without bedding and with a line drawn at the bottom of the cage. First, mice were acclimated to the surrounding and video-recorded for 10 minutes before the beginning of the test to analyse the baseline motor activity (total distance travelled). Second, mice were injected with test item or vehicle and acclimated for another 5 minutes and activity was again monitored and video recorded during a 20 minutes session. The 10 minutes video containing basal activity and the 20 minutes video after treatment administration were analysed using the ezTracker-master software. Horizontal activity was also measured. It represents the number of times the mice crossed the line drawn at the bottom of the cage. Animals are submitted to 6 sessions (3 sessions/week on Monday, Wednesday and Friday). During session 1, all mice receive an administration of vehicle. During sessions 2-5, groups 1F/1M receive an injection of vehicle; groups 2F/2M receive methylphenidate injection, groups 3F/3M receive levodopa/carbidopa injection and groups 4F/4M receive levodopa/carbidopa and methylphenidate injections. And during session 6, all mice receive an administration of methylphenidate.

[5] = day 3, development of behavioral sensitization
[6] = day 10, development of behavioral sensitization

Structure (SMILES)	horizontal activity (C57B1/6J mice [1]) [counts]	vertical activity (C57B1/6J mice [1]) [counts]	horizontal activity (C57B1/6J mice [2]; line crossings) [counts]	vertical activity (C57B1/6J mice [2]; rearing or climbing) [counts]	distance travelled during drug sessions (C57B1/6J mice [3])	locomotor activity (total distance travelled) (C57B1/6J mice [4]; [5])	horizontal activity (C57B1/6J mice [4]; [5])	locomotor activity (total distance travelled) (C57B1/6J mice [4]; [6])	horizontal activity (C57B1/6J mice [4]; [6])	locomotor activity before treatment administration (baseline motor activity) (C57B1/6J mice [4]; experimental day 12, 10 minutes baseline session before injection, after chronic treatment, levodopa/carbidopa 17/1.7 mg/kg IP)
N[C@@H](Cc1ccc(O)c(O)c1)C(=O)O [levodopa, L-3,4-dihydroxyphenylalanine]	17±4	24±7								
COC(=O)C(c1ccccc1)C1CCCCN1 (stereo not drawn) [methylphenidate, Methylphenidate]	49±11	42±16	62±24	59±10	increased the distance travelled during drug sessions compared to vehicle-treated group	127,39±38,76 meters	259,69±115,51 counts	185,70±41,44 meters	420,38±137,05 counts	28,35±7,43 meters
